Measured values taken from patent US20070111318A1 (priority 2003, published 2007).

Test system: ddY mice
Details: mouse, in vivo, ip

For `C=C(C[C@@H]1C[C@H](O)[C@]2(C)O[C@@H]3C[C@@H]4O[C@@H]5C[C@]6(C)O[C@]7(C)CC[C@@H]8O[C@@H]9C[C@]%10(C)O[C@@H]%11C(C)=CC(=O)O[C@H]%11C[C@H]%10O[C@H]9C[C@@H](C)[C@H]8O[C@H]7C[C@H]6O[C@@]5(C)C/C=C\[C@H]4O[C@H]3C[C@H]2O1)C(=O)O` [BTX-B5, brevetoxin B5], the symptoms after injection was “symptoms of neurotoxicity extremely similar to those caused by other brevetoxins”.
